# Laboratory results taken from US12286632B2, “Rationally-designed synthetic peptide shuttle agents for delivering polypeptide cargos from an extracellular space to the cytosol and/or nucleus of a target eukaryotic cell, uses thereof, methods and kits relating to same” (Feldan Bio Inc., priority 2016, dated 2025).
# Assays:
# HEK 293T cells = experiment: GFP-NLS transduction in different adherent and suspension cells (flow cytometry, Pos cells % and viability %); type: cell-based, Human; conditions: Protocol B, 35 μM shuttle, 5 μM GFP-NLS, 10 seconds
# Protocol: (§1) The media in wells was removed, cells were washed once with PBS previously warmed at 37° C., and the shuttle agent/cargo mixture was then added to cover all cells for the desired length of time. The shuttle agent/cargo mixture in wells was removed, the cells were washed once with PBS, and fresh complete medium was added. Before analysis, the cells were washed once with PBS and fresh complete medium was added.
# (§2) The ability of the shuttle agent His-CM18-PTD4 to deliver GFP-NLS to the nuclei of different adherent and suspension cells using Protocols B (adherent cells) or C (suspension cells) as described in Example 9.1 was examined. The cell lines tested included: HeLa, Balb3T3, HEK 293T, CHO, NIH3T3, Myoblasts, Jurkat, THP-1, CA46, and HT2 cells, which were cultured as described in Example 1. GFP-NLS (5 μM; see Example 5.1) was co-incubated with 35 μM of His-CM18-PTD4 and exposed to adherent cells for 10 seconds (Protocol B), or was co-incubated with 5 μM of His-CM18-PTD4 and exposed to suspension cells for 15 seconds (Protocol C). […] “Pos cells (%)” is the mean percentages of all cells that emanate a GFP signal.
# Myoblasts = experiment: as above; type: cell-based, Human; conditions: Protocol B, 35 μM shuttle, 5 μM GFP-NLS, 10 seconds
# Protocol: as §1, §2
# HT2 cells = experiment: as above; type: cell-based; conditions: Protocol C, 5 μM shuttle, 5 μM GFP-NLS, 15 seconds
# Protocol: as §2
# THP-1 cells = experiment: HOXB4-WT transduction: target gene mRNA by real-time PCR (Fold over control) and total RNA (ng/μL) as marker for cell viability; type: cell-based, human; conditions: for Total RNA in ng/μL (mean ± St. Dev): THP-1, serum
# Protocol: Control and treated cells are transferred to separate sterile 1.5-mL tubes and centrifuged for 5 minutes at 300g. The cell pellets are resuspended in appropriate buffer to lyse the cells. RNAase-free 70% ethanol is then added followed by mixing by pipetting. The lysates are transferred to an RNeasy™ Mini spin column and centrifuged 30 seconds at 13000 RPM. After several washes with appropriate buffers and centrifugation steps, the eluates are collected in sterile 1.5-mL tubes on ice, and the RNA quantity in each tube is then quantified with a spectrophotometer. For DNase treatment, 2 μg of RNA is diluted in 15 μL of RNase-free water. 1.75 μL of 10X DNase buffer and 0.75 μL of DNase is then added, followed by incubation at 37° C. for 15 minutes. For reverse transcriptase treatment, 0.88 μL of EDTA […] is added, followed by incubation at 75° C. for 5 minutes. In a PCR tube, […] of DNase-treated RNA is mixed with 4 μL of iScript™ Reverse transcription Supermix (5X) and […] of nuclease-free water. The mix is incubated in a PCR machine with the following program: 5 min at 25° C., 30 min at 42° C. and 5 min at 85° C. Newly synthesized cDNA is transferred in sterile 1.5-mL tubes and diluted in 2 μL of nuclease-free water. 18 μL per well of a qPCR machine (CFX-96™) mix is then added in a PCR plate for analysis.
# Briefly, THP-1 cells were plated at 30 000 cells/well one day before transduction. HOXB4-WT recombinant protein ([…]; Example 14.1) was co-incubated with different concentrations of His-CM18-PTD4 ([…]) and then exposed to THP-1 cells for 2.5 hours in the presence of serum. The cells were subjected to real time-PCR analysis as described in Example 14.2 to measure the mRNA levels of a target gene as a marker for HOXB4 activity, which was then normalized to the target gene mRNA levels detected in the negative control cells (no treatment), to obtain a “Fold over control” value. Total RNA levels (ng/μL) were also measured as a marker for cell viability.
# Briefly, THP-1 cells were plated at 30 000 cells/well one day before the first time course experiment. HOXB4-WT recombinant protein (1.5 μM; Example 14.1) was co-incubated with His-CM18-PTD4 (0.8 μM) and then exposed to THP-1 cells for 0, 2.5, 4, 24 or 48 hours in presence of serum. The cells were subjected to real time-PCR analysis as described in Example 14.2 to measure mRNA levels of a target gene as a marker for HOXB4 activity, which was then normalized to the target gene mRNA levels detected in the negative control cells (no treatment), to obtain a “Fold over control” value. Total RNA levels (ng/μL) were also measured as a marker for cell viability.
# Briefly, THP-1 cells were plated at 30 000 cells/well one day before the first time course experiment. HOXB4-WT recombinant protein (0.3 μM; Example 14.1) was co-incubated with His-CM18-PTD4 (0.8 μM) and then exposed to THP-1 cells for 0, 0.5, 1, 2, 2.5, 3 or 4 hours in presence of serum. The cells were subjected to real time-PCR analysis as described in Example 14.2 to measure mRNA levels of a target gene as a marker for HOXB4 activity, which was then normalized to target gene mRNA levels detected in the negative control cells (no treatment), to obtain a “Fold over control” value. Total RNA levels (ng/μL) were also measured as a marker for cell viability.
# Briefly, THP-1 cells were plated at 30 000 cells/well one day before the first time course experiment. HOXB4-WT recombinant protein (1.5 μM; Example 14.1) co-incubated with the shuttle agents His-CM18-PTD4, TAT-KALA, EB1-PTD4, His-C(LLKK)3C-PTD4 and His-CM18-PTD4-His at 0.8 μM, and then exposed to THP-1 cells for 2.5 hours in presence of serum. The cells were subjected to real time-PCR analysis as described in Example 14.2 to measure mRNA levels of a target gene as a marker for HOXB4 activity, which was then normalized to target gene mRNA levels detected in the negative control cells (no treatment), to obtain a “Fold over control” value. […]
smiles,measurement,setting,value
CC[C@H](C)[C@H](NC(=O)[C@H](CCCCN)NC(=O)[C@H](CCCCN)NC(=O)[C@H](Cc1ccccc1)NC(=O)[C@H](CC(C)C)NC(=O)[C@H](CCCCN)NC(=O)[C@H](Cc1c[nH]c2ccccc12)NC(=O)[C@H](CCCCN)NC(=O)[C@H](Cc1c[nH]cn1)NC(=O)[C@H](Cc1c[nH]cn1)NC(=O)[C@H](Cc1c[nH]cn1)NC(=O)[C@H](Cc1c[nH]cn1)NC(=O)[C@H](Cc1c[nH]cn1)NC(=O)[C@@H](N)Cc1c[nH]cn1)C(=O)NCC(=O)N[C@@H](C)C(=O)N[C@H](C(=O)N[C@@H](CC(C)C)C(=O)N[C@@H](CCCCN)C(=O)N[C@H](C(=O)N[C@@H](CC(C)C)C(=O)N[C@H](C(=O)N[C@H](C(=O)NCC(=O)N[C@@H](Cc1ccc(O)cc1)C(=O)N[C@@H](C)C(=O)N[C@@H](CCCNC(=N)N)C(=O)N[C@@H](C)C(=O)N[C@@H](C)C(=O)N[C@@H](C)C(=O)N[C@@H](CCCNC(=N)N)C(=O)N[C@@H](CCC(N)=O)C(=O)N[C@@H](C)C(=O)N[C@@H](CCCNC(=N)N)C(=O)N[C@@H](C)C(=O)O)[C@@H](C)O)[C@@H](C)O)C(C)C)C(C)C [His-CM18-PTD4],Cell viability (%) (±St. Dev.; n = 3),HEK 293T cells,95.3 ± 1.2%
same,Mean % cells with GFP signal (±St. Dev.; n = 3),HEK 293T cells,55.3 ± 0.2%
same,Cell viability (%) (±St. Dev.; n = 3),Myoblasts,23.5 ± 1.1%
same,Mean % cells with GFP signal (±St. Dev.; n = 3),Myoblasts,25.6 ± 2.6%
same,Cell viability (%) (±St. Dev.; n = 3),HT2 cells,90.6 ± 1.5%
same,Mean % cells with GFP signal (±St. Dev.; n = 3),HT2 cells,30.5 ± 2.5%
same,target gene mRNA transcription after HOXB4-WT transduction (in words),THP-1 cells; 2.5 hours in the presence of serum,dose-dependent increase in mRNA transcription of the target gene
same,Total RNA in ng/μL (mean ± St. Dev),"THP-1 cells; Table 14.1, 2.5 hours, shuttle 1 μM, HOXB4-WT 0 μM (alone)",252 ± 10.7 ng/µL
same,Total RNA in ng/μL (mean ± St. Dev),"THP-1 cells; Table 14.2, shuttle 0.8 μM, HOXB4-WT 0 μM (alone), exposure 2.5 h",184 ± 6.0 ng/µL
same,Total RNA in ng/μL (mean ± St. Dev),"THP-1 cells; Table 14.3, shuttle 0 μM, HOXB4-WT 0.3 μM (alone), exposure 2.5 h",260 ± 7.1 ng/µL
same,Total RNA in ng/μL (mean ± St. Dev),"THP-1 cells; Table 14.4, shuttle 0 μM, HOXB4-WT 1.5 μM (alone), exposure 2.5 h",303.9 ± 7.6 ng/µL
